Laboratory results: ChEMBL document CHEMBL1137135 (Bioorg Med Chem Lett, 2004)
pIC50, pKi: −log10 of the molar value.

Assays:
[1] = In vitro inhibitory activity against Factor Xa
[2] = organism: Rattus norvegicus; test: In vitro anticoagulant activity of compound was determined in rat; assay type: functional
[3] = Binding affinity of compound towards Factor Xa
[4] = Bioavailability in rat; assay type: ADME, organism-based; conditions: in vivo
[5] = Half-life of compound was determined in rat; assay type: ADME; conditions: in vivo
[6] = Plasma clearance of compound was determined in rat; assay type: ADME, organism-based
[7] = Vz of compound was determined in rat; assay type: ADME, organism-based; conditions: in vivo, read-out: Vz

Structure (SMILES)	pIC50 [1]	also measured
COCCN(C)Cc1ccccc1-c1ccc(C(=O)N[C@H](CC(=O)Nc2ccc(Br)cn2)C(=O)N2CCCCC2)cc1	8.89	–
NS(=O)(=O)c1ccccc1-c1ccc(C(=O)NCCNC(=O)c2cc3cc(Cl)ccc3[nH]2)cc1	6.12	–
NS(=O)(=O)c1ccccc1-c1ccc(C(=O)NCCNS(=O)(=O)c2ccc3cc(Br)ccc3c2)cc1	5.03	–
CN(C)C(=N)c1ccc(C(=O)N[C@H](CC(=O)Nc2ccc(Br)cn2)C(=O)N2CCCCC2)cc1	8.34	–
NS(=O)(=O)c1ccccc1-c1ccc(C(=O)NCCNS(=O)(=O)c2cc3cc(Cl)ccc3[nH]2)cc1	5.72	–
NS(=O)(=O)c1ccccc1-c1ccc(C(=O)NCCC(=O)Nc2ccc(Cl)cc2)cc1	7.77	–
NS(=O)(=O)c1ccccc1-c1ccc(C(=O)NCCNC(=O)c2cccc(Cl)c2)cc1	5.82	–
NS(=O)(=O)c1ccccc1-c1ccc(C(=O)NCCNC(=O)c2ccc(Br)cc2)cc1	6.02	–
NS(=O)(=O)c1ccccc1-c1ccc(C(=O)NC(CC(=O)Nc2ccc(Br)cn2)C(=O)O)cc1 (stereo not drawn)	8.36	2X PT [2]: 74 µM; pKi [3]: 8.76; bioavailability [4]: 4%; half-life [5]: 1 h; clearance [6]: 6.7 mL/min/kg; Vd [7]: 0.6 L/kg
NS(=O)(=O)c1ccccc1-c1ccc(C(=O)NCCNC(=O)c2ccccc2)cc1	< 5.00	–
COC(=O)C(CC(=O)Nc1ccc(Br)cn1)NC(=O)c1ccc(-c2ccccc2S(N)(=O)=O)cc1 (stereo not drawn)	7.61	–
CCC(=O)NC(CC(=O)Nc1ccc(Br)cn1)C(=O)Nc1ccc(-c2ccccc2S(N)(=O)=O)cc1 (stereo not drawn)	7.44	–
NS(=O)(=O)c1ccccc1-c1ccc(C(=O)NC(CC(=O)Nc2ccc(Br)cn2)C(=O)N2CCCC2)cc1 (stereo not drawn)	7.84	–
CNC(=O)C(CC(=O)Nc1ccc(Br)cn1)NC(=O)c1ccc(-c2ccccc2S(N)(=O)=O)cc1 (stereo not drawn)	7.76	–
NS(=O)(=O)c1ccccc1-c1ccc(NC(=O)C(CC(=O)Nc2ccc(Br)cn2)NC(=O)Nc2ccccc2)cc1 (stereo not drawn)	7.43	–
NC(CNC(=O)c1ccc(-c2ccccc2S(N)(=O)=O)cc1)C(=O)Nc1ccc(Br)cn1 (stereo not drawn)	5.78	–
CN1CCN=C1c1ccc(C(=O)N[C@H](CC(=O)Nc2ccc(Cl)cn2)C(=O)N2CCCCC2)cc1	7.59	–
COCCN(C)Cc1ccccc1-c1ccc(C(=O)N[C@@H](CC(=O)Nc2ccc(Cl)cn2)C(=O)N2CCCCC2)cc1	8.03	–
NS(=O)(=O)c1ccccc1-c1ccc(NC(=O)C(CC(=O)Nc2ccc(Br)cn2)NC(=O)c2ccncc2)cc1 (stereo not drawn)	7.36	–
NS(=O)(=O)c1ccccc1-c1ccc(C(=O)NC(CC(=O)Nc2ccc(Br)cn2)C(=O)N2CCOCC2)cc1 (stereo not drawn)	7.64	–
NS(=O)(=O)c1ccccc1-c1ccc(NC(=O)C(CC(=O)Nc2ccc(Br)cn2)NC(=O)C(F)(F)F)cc1 (stereo not drawn)	6.70	–
CCOC(=O)CNC(=O)C(CC(=O)Nc1ccc(Br)cn1)NC(=O)c1ccc(-c2ccccc2S(N)(=O)=O)cc1 (stereo not drawn)	8.48	–
CN(C)C(=N)c1ccc(C(=O)N[C@H](CC(=O)Nc2ccc(Cl)cn2)C(=O)N2CCCCC2)cc1	7.92	–
NS(=O)(=O)c1ccccc1-c1ccc(NC(=O)C(CC(=O)Nc2ccc(Br)cn2)NC(=O)C2CCCNC2)cc1 (stereo not drawn)	6.35	–
CN(C)Cc1nccn1-c1ccc(C(=O)N[C@@H](CC(=O)Nc2ccc(Cl)cn2)C(=O)N2CCCCC2)cc1	8.04	–

Structure (SMILES)	pIC50 [1]	also measured
NS(=O)(=O)c1ccccc1-c1ccc(C(=O)NC(CC(=O)Nc2ccc(Br)cn2)C(=O)Nc2ccccc2)cc1 (stereo not drawn)	7.58	–
CN1CCN=C1c1ccc(C(=O)N[C@@H](CC(=O)Nc2ccc(Cl)cn2)C(=O)N2CCCCC2)cc1	7.55	–
NS(=O)(=O)c1ccccc1-c1ccc(C(=O)NC(CC(=O)Nc2ccc(Br)cn2)C(=O)N2CCNCC2)cc1 (stereo not drawn)	7.04	–
NS(=O)(=O)c1ccccc1-c1ccc(NC(=O)CCC(=O)Nc2ccc(Br)cn2)cc1	7.70	–
NS(=O)(=O)c1ccccc1-c1ccc(NC(=O)CCNC(=O)c2ccc(Cl)s2)cc1	6.89	–
CC(=O)NC(CC(=O)Nc1ccc(Br)cn1)C(=O)Nc1ccc(-c2ccccc2S(N)(=O)=O)cc1 (stereo not drawn)	6.74	–
NS(=O)(=O)c1ccccc1-c1ccc(NC(=O)CCC(=O)Nc2ccc(Cl)cc2)cc1	7.92	–
O=C(C[C@@H](NC(=O)c1ccc(-c2ccccc2CN2CCCC2)cc1)C(=O)N1CCCCC1)Nc1ccc(Br)cn1	9.00	–
CN1CCN=C1c1ccc(C(=O)N[C@H](CC(=O)Nc2ccc(Br)cn2)C(=O)N2CCCCC2)cc1	8.09	–
CN1CCN(C(=O)C(CC(=O)Nc2ccc(Br)cn2)NC(=O)c2ccc(-c3ccccc3S(N)(=O)=O)cc2)CC1 (stereo not drawn)	7.58	–
NCC(=O)NC(CC(=O)Nc1ccc(Br)cn1)C(=O)Nc1ccc(-c2ccccc2S(N)(=O)=O)cc1 (stereo not drawn)	6.82	–
NS(=O)(=O)c1ccccc1-c1ccc(C(=O)NCCNS(=O)(=O)c2ccc(Cl)cc2)cc1	< 5.00	–
O=C(C[C@H](NC(=O)c1ccc(-c2ccccc2CN2CCCC2)cc1)C(=O)N1CCCCC1)Nc1ccc(Cl)cn1	8.57	–
O=C(C[C@@H](NC(=O)c1ccc(-c2ccccc2CN2CCCC2)cc1)C(=O)N1CCCCC1)Nc1ccc(Cl)cn1	8.70	–
NC(CC(=O)Nc1ccc(Br)cn1)C(=O)Nc1ccc(-c2ccccc2S(N)(=O)=O)cc1 (stereo not drawn)	6.84	–
CN(C)Cc1nccn1-c1ccc(C(=O)N[C@@H](CC(=O)Nc2ccc(Br)cn2)C(=O)N2CCCCC2)cc1	6.48	–
CS(=O)(=O)NC(CNC(=O)c1ccc(-c2ccccc2S(N)(=O)=O)cc1)C(=O)Nc1ccc(Br)cn1 (stereo not drawn)	5.90	–
NS(=O)(=O)c1ccccc1-c1ccc(NC(=O)C(CC(=O)Nc2ccc(Br)cn2)NC(=O)C2CCNCC2)cc1 (stereo not drawn)	6.71	–
NS(=O)(=O)c1ccccc1-c1ccc(C(=O)NC(CC(=O)Nc2ccc(Br)cn2)C(=O)NC2CCCC2)cc1 (stereo not drawn)	7.80	–
NS(=O)(=O)c1ccccc1-c1ccc(C(=O)NCCC(=O)Nc2ccc(Br)cc2)cc1	7.54	–
CN(C)Cc1nccn1-c1ccc(C(=O)N[C@H](CC(=O)Nc2ccc(Br)cn2)C(=O)N2CCCCC2)cc1	8.51	–
O=C(C[C@H](NC(=O)c1ccc(-c2ccccc2CN2CCOCC2)cc1)C(=O)N1CCCCC1)Nc1ccc(Cl)cn1	8.44	–
O=C(C[C@H](NC(=O)c1ccc(-c2ccccc2CN2CCOCC2)cc1)C(=O)N1CCCCC1)Nc1ccc(Br)cn1	6.54	–
NS(=O)(=O)c1ccccc1-c1ccc(C(=O)NC(CC(=O)Nc2ccc(Br)cn2)C(=O)N2CCCCC2)cc1 (stereo not drawn)	8.12	2X PT [2]: 7 µM; TG 2X lag [2]: 4.6 µM; pKi [3]: 8.87; bioavailability [4]: 2.7%; half-life [5]: 1.35 h; clearance [6]: 50.6 mL/min/kg; Vd [7]: 5.9 L/kg
NS(=O)(=O)c1ccccc1-c1ccc(C(=O)NC(CC(=O)Nc2ccc(Br)cn2)C(=O)N2CCS(=O)(=O)CC2)cc1 (stereo not drawn)	7.40	–

Structure (SMILES)	pIC50 [1]	also measured
O=C(C[C@@H](NC(=O)c1ccc(-c2ccccc2CN2CCOCC2)cc1)C(=O)N1CCCCC1)Nc1ccc(Cl)cn1	8.74	–
CC(=O)NC(CNC(=O)c1ccc(-c2ccccc2S(N)(=O)=O)cc1)C(=O)Nc1ccc(Br)cn1 (stereo not drawn)	6.09	–
CNCCNC(=O)C(CC(=O)Nc1ccc(Br)cn1)NC(=O)c1ccc(-c2ccccc2S(N)(=O)=O)cc1 (stereo not drawn)	7.36	–
NS(=O)(=O)c1ccccc1-c1ccc(NC(=O)CCC(=O)Nc2ccc(Br)cc2)cc1	7.19	–
NS(=O)(=O)c1ccccc1-c1ccc(NC(=O)CCC(=O)Nc2ccc(Cl)cn2)cc1	7.43	–
NS(=O)(=O)c1ccccc1-c1ccc(C(=O)NC(CC(=O)Nc2ccc(Br)cn2)C(=O)N2CCCCCC2)cc1 (stereo not drawn)	8.30	–
CN(C)Cc1ccccc1-c1ccc(C(=O)N[C@@H](CC(=O)Nc2ccc(Cl)cn2)C(=O)N2CCCCC2)cc1	8.54	2X PT [2]: 3.6 µM; TG 2X lag [2]: 0.96 µM; pKi [3]: 9.00; bioavailability [4]: 7.9%; half-life [5]: 6.1 h; clearance [6]: 124 mL/min/kg; Vd [7]: 59.2 L/kg
NS(=O)(=O)c1ccccc1-c1ccc(C(=O)NCCNC(=O)c2ccc(Cl)s2)cc1	8.24	–
CCCCOC(=O)NC(CNC(=O)c1ccc(-c2ccccc2S(N)(=O)=O)cc1)C(=O)Nc1ccc(Br)cn1 (stereo not drawn)	5.90	–
O=C(C[C@@H](NC(=O)c1ccc(-c2ccccc2CN2CCOCC2)cc1)C(=O)N1CCCCC1)Nc1ccc(Br)cn1	8.96	–
COCCN(C)Cc1ccccc1-c1ccc(C(=O)N[C@H](CC(=O)Nc2ccc(Cl)cn2)C(=O)N2CCCCC2)cc1	8.32	–
CN(C)CCNC(=O)C(CC(=O)Nc1ccc(Br)cn1)NC(=O)c1ccc(-c2ccccc2S(N)(=O)=O)cc1 (stereo not drawn)	7.30	–
CN(C)CC(=O)NC(CC(=O)Nc1ccc(Br)cn1)C(=O)Nc1ccc(-c2ccccc2S(N)(=O)=O)cc1 (stereo not drawn)	6.67	–
COCCN(C)Cc1ccccc1-c1ccc(C(=O)N[C@@H](CC(=O)Nc2ccc(Br)cn2)C(=O)N2CCCCC2)cc1	6.03	–
CN(C)CCN(C)C(=O)C(CC(=O)Nc1ccc(Br)cn1)NC(=O)c1ccc(-c2ccccc2S(N)(=O)=O)cc1 (stereo not drawn)	7.34	–
CN(C)Cc1nccn1-c1ccc(C(=O)N[C@H](CC(=O)Nc2ccc(Cl)cn2)C(=O)N2CCCCC2)cc1	8.12	–
COc1ccc(C(=O)NCCNC(=O)c2ccc(-c3ccccc3S(N)(=O)=O)cc2)cc1	5.59	–
NS(=O)(=O)c1ccccc1-c1ccc(NC(=O)C(CC(=O)Nc2ccc(Br)cn2)NC(=O)c2cccnc2)cc1 (stereo not drawn)	7.33	–
NS(=O)(=O)c1ccccc1-c1ccc(C(=O)NCCNS(=O)(=O)c2cc3ccc(Cl)cc3s2)cc1	5.96	–
NS(=O)(=O)c1ccccc1-c1ccc(C(=O)NCC(NC(=O)Nc2ccccc2)C(=O)Nc2ccc(Br)cn2)cc1 (stereo not drawn)	5.07	–
CN(C)Cc1ccccc1-c1ccc(C(=O)N[C@H](CC(=O)Nc2ccc(Br)cn2)C(=O)N2CCCCC2)cc1	9.19	2X PT [2]: 1.98 µM; TG 2X lag [2]: 0.42 µM; pKi [3]: 9.85
O=C(C[C@H](NC(=O)c1ccc(-c2ccccc2CN2CCCC2)cc1)C(=O)N1CCCCC1)Nc1ccc(Br)cn1	6.64	–
CN(C)C(=N)c1ccc(C(=O)N[C@@H](CC(=O)Nc2ccc(Cl)cn2)C(=O)N2CCCCC2)cc1	7.62	–
NS(=O)(=O)c1ccccc1-c1ccc(NC(=O)/C=C/C(=O)Nc2ccc(Cl)cc2)cc1 (stereo in doubt; cis)	7.17	–
NS(=O)(=O)c1ccccc1-c1ccc(NC(=O)/C=C/C(=O)Nc2ccc(Cl)cc2)cc1 (stereo in doubt; trans)	< 5.00	–
